Measurements taken from ChEMBL document CHEMBL3856204, “Chiral 6-aryl-furo[2,3-d]pyrimidin-4-amines as EGFR inhibitors” (Eur J Med Chem, 2016).

How the values were obtained:
[1] = biological target: Vascular endothelial growth factor receptor 2 (Homo sapiens) (UniProt P35968); assay: Inhibition of His tagged recombinant human KDR (789 to 1356 residues) expressed in baculovirus at 500 nM by Z'-LYTE assay
[2] = biological target: Fibroblast growth factor receptor 1 (Homo sapiens) (UniProt P11362); assay: Inhibition of His tagged recombinant human FGFR1 cytoplasmic domain (308 to 731 residues) expressed in baculovirus at 500 nM by Z'-LYTE assay
[3] = biological target: Protein kinase C theta type (Homo sapiens) (UniProt Q04759); assay: Inhibition of His tagged recombinant full length human PRKCQ expressed in baculovirus at 500 nM by Z'-LYTE assay
[4] = biological target: cAMP-dependent protein kinase catalytic subunit alpha (Homo sapiens) (UniProt P17612); assay: Inhibition of His tagged recombinant human PRKACA catalytic domain (1 to 351 residues) expressed in Escherichia coli at 500 nM by Z'-LYTE assay
[5] = biological target: T1, Serine/threonine-protein kinase Nek1 (Homo sapiens) (UniProt Q96PY6); assay: Inhibition of GST tagged recombinant human NEK1 catalytic domain (1 to 505 residues) expressed in baculovirus at 500 nM by Z'-LYTE assay
T1 sequence (whole entry): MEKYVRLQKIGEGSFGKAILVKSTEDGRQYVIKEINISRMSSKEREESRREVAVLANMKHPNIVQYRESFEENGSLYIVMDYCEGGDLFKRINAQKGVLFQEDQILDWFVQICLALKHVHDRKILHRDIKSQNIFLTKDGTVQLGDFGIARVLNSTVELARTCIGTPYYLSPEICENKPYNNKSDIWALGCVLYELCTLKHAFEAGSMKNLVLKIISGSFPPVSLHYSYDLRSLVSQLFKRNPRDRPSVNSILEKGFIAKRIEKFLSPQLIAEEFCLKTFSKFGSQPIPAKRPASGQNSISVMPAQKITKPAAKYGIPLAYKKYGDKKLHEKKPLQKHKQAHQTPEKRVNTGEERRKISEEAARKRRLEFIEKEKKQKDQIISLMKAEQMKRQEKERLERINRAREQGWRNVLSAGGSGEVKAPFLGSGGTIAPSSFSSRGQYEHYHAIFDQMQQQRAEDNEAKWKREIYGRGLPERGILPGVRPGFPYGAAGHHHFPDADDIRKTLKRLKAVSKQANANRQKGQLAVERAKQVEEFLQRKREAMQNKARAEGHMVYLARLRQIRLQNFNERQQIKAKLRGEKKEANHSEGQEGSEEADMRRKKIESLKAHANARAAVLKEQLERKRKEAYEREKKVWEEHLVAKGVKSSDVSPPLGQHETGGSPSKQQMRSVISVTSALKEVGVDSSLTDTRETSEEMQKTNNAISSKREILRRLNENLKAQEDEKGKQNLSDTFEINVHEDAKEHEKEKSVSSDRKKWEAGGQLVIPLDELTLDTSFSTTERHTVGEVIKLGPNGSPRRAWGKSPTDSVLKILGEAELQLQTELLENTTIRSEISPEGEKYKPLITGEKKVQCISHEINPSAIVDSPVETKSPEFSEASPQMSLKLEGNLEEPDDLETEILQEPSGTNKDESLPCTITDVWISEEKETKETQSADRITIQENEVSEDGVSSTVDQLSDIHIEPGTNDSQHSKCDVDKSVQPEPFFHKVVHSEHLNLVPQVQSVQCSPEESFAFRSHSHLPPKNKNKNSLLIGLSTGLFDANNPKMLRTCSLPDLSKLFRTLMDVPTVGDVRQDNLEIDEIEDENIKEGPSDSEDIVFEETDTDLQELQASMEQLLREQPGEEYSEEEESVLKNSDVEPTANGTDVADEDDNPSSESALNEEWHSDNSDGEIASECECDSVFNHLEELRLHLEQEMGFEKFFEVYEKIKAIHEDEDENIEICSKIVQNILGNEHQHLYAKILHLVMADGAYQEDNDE

[6] = biological target: T2, Ephrin type-B receptor 1 (Homo sapiens) (UniProt P54762); assay: Inhibition of GST tagged recombinant human EPHB1 cytoplasmic domain (613 to 881 residues) expressed in baculovirus at 500 nM by Z'-LYTE assay
T2 sequence (whole entry): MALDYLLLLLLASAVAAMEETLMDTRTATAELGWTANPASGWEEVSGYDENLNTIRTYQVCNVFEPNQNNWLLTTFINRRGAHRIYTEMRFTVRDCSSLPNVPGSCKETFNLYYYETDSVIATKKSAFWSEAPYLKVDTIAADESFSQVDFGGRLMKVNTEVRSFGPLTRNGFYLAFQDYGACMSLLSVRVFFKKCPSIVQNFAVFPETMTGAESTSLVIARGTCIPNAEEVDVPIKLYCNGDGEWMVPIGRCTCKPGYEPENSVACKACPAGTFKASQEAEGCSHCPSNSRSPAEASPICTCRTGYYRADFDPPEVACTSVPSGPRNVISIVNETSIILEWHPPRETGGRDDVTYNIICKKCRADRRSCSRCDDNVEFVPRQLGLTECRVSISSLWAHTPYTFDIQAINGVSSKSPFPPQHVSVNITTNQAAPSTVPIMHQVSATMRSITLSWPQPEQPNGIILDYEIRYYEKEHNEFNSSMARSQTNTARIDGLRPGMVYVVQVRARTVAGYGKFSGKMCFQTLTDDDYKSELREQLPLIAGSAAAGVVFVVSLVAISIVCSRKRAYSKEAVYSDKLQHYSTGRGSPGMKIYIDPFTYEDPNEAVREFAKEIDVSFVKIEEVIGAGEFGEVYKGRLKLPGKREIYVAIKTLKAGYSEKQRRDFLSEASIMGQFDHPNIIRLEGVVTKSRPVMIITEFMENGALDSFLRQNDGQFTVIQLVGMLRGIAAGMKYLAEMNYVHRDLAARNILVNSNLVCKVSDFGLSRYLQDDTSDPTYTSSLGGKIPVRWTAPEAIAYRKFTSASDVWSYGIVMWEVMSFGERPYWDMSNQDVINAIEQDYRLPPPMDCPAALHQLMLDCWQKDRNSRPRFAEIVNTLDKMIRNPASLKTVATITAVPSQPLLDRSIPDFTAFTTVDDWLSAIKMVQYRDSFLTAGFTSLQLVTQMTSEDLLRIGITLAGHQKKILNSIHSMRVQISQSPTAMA

[7] = biological target: Platelet-derived growth factor receptor alpha (Homo sapiens) (UniProt P16234); assay: Inhibition of GST tagged recombinant human PGFRA cytoplasmic domain (550 to 1089 residues) expressed in baculovirus at 500 nM by Z'-LYTE assay
[8] = biological target: Tyrosine-protein kinase Yes (Homo sapiens) (UniProt P07947); assay: Inhibition of GST tagged recombinant full length human YES1 expressed in baculovirus at 500 nM by Z'-LYTE assay
[9] = biological target: Dual specificity mitogen-activated protein kinase kinase 1 (Homo sapiens) (UniProt Q02750); assay: Inhibition of His tagged recombinant full length human MEK1 expressed in baculovirus at 500 nM by Z'-LYTE assay
Chain of Dual specificity mitogen-activated protein kinase kinase 1 (Homo sapiens) (Q02750 whole entry): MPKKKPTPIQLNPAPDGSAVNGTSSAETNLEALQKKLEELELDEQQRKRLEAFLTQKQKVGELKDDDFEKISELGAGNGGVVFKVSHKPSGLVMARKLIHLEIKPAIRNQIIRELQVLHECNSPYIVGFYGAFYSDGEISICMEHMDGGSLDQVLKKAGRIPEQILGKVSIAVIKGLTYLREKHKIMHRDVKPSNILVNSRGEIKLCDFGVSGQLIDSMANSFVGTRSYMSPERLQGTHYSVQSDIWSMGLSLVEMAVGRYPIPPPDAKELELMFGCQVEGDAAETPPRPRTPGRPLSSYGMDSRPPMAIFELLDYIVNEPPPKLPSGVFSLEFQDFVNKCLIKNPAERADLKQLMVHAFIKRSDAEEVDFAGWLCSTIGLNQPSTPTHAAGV

Chain of Vascular endothelial growth factor receptor 2 (Homo sapiens) (P35968 whole entry, the tested form may be a part): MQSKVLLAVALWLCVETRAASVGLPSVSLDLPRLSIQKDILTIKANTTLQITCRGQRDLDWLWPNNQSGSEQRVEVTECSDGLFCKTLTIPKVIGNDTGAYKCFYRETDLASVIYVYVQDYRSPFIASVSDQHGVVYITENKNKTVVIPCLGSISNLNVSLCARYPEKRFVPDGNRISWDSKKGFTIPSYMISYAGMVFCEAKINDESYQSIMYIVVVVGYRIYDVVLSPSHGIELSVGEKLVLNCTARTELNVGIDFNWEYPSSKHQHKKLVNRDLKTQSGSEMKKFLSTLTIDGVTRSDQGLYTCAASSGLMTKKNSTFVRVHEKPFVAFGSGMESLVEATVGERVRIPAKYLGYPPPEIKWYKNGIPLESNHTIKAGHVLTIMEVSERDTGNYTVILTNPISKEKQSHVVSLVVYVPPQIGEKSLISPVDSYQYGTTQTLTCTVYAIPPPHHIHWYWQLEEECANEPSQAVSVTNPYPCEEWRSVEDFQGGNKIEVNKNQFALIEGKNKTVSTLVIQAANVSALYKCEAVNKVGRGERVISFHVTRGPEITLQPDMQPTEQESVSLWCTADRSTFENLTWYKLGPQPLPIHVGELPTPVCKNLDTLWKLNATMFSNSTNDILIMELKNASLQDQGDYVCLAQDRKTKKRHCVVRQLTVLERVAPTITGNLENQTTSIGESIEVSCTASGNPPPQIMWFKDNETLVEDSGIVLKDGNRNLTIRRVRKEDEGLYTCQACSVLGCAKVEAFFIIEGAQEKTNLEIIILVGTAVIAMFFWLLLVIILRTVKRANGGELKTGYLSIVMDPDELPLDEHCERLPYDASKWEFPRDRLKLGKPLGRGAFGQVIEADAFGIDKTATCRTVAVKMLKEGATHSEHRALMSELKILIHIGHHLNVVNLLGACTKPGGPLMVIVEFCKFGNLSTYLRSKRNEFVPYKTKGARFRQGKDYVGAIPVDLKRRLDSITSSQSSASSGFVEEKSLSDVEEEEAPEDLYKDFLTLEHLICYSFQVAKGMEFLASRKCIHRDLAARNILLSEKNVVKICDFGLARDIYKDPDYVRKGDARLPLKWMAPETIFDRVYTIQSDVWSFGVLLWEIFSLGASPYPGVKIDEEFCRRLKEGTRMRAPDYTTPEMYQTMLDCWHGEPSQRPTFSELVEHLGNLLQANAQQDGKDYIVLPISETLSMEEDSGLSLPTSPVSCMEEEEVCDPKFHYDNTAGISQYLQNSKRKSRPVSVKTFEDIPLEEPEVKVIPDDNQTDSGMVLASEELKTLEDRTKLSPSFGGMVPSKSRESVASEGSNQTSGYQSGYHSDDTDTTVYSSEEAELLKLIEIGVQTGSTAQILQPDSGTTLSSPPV
Chain of Platelet-derived growth factor receptor alpha (Homo sapiens) (P16234 whole entry, the tested form may be a part): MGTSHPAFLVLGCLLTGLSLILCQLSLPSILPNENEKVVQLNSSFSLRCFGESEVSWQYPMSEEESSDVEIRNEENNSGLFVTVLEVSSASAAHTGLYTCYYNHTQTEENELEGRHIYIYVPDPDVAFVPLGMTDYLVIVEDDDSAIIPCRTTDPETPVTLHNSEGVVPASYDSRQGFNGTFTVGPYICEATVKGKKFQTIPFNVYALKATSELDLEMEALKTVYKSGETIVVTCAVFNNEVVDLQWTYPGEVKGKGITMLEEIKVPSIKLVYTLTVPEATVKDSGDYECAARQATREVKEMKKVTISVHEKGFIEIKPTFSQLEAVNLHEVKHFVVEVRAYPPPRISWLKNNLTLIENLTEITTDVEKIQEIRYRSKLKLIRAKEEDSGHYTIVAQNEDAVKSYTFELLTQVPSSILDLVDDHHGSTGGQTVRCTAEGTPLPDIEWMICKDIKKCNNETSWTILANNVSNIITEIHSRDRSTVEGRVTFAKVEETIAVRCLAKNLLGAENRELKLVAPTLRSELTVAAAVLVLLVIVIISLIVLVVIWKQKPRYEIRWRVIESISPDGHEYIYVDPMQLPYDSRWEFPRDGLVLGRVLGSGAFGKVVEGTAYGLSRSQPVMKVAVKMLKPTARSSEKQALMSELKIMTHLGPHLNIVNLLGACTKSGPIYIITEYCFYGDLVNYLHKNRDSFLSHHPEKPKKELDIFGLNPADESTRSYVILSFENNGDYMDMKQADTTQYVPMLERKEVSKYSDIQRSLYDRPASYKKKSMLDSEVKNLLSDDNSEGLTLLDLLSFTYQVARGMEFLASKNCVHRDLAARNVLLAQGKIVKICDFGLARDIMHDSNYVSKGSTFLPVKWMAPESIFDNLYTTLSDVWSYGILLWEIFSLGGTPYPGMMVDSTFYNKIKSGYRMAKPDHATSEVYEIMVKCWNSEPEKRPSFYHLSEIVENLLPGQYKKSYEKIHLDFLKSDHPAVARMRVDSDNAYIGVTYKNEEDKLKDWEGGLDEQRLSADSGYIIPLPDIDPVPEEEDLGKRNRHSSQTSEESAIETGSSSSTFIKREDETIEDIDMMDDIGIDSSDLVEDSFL
Chain of Fibroblast growth factor receptor 1 (Homo sapiens) (P11362 22-822 limits assumed): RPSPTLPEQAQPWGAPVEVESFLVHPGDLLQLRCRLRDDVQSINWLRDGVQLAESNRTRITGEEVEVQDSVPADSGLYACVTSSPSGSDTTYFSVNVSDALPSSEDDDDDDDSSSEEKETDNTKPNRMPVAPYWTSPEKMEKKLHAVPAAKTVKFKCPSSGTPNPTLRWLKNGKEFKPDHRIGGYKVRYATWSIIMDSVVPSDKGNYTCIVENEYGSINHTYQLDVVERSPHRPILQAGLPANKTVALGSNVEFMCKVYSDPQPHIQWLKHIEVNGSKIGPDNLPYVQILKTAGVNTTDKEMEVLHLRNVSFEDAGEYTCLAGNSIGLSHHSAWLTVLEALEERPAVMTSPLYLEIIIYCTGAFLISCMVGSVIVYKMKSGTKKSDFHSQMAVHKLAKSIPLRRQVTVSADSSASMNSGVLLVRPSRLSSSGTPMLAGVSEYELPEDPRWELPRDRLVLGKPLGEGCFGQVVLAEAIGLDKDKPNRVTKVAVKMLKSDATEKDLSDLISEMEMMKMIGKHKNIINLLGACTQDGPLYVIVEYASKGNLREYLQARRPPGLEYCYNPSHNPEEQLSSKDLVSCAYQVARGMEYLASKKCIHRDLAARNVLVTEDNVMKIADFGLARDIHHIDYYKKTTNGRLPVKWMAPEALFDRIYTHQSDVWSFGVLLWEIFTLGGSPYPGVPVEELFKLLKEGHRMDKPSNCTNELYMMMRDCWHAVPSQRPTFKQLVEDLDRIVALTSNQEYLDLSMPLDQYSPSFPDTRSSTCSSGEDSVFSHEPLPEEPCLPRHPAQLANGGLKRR
Chain of Tyrosine-protein kinase Yes (Homo sapiens) (P07947 2-543 limits assumed): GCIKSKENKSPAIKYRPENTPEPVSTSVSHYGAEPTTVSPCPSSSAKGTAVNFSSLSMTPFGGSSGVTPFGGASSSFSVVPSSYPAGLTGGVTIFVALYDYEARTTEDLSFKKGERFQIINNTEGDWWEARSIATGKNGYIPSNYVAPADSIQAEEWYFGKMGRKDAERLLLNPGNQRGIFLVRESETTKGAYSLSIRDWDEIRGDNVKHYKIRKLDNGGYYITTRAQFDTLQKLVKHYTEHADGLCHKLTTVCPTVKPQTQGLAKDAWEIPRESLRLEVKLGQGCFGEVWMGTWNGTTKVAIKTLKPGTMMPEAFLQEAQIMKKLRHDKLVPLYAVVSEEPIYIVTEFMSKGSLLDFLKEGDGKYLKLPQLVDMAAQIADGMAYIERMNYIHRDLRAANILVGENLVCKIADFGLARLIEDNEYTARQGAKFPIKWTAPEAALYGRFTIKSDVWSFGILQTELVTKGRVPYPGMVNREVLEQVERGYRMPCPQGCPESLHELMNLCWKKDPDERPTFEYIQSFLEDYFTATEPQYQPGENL
Chain of Protein kinase C theta type (Homo sapiens) (Q04759 whole entry, looked up, the tested form may be a part): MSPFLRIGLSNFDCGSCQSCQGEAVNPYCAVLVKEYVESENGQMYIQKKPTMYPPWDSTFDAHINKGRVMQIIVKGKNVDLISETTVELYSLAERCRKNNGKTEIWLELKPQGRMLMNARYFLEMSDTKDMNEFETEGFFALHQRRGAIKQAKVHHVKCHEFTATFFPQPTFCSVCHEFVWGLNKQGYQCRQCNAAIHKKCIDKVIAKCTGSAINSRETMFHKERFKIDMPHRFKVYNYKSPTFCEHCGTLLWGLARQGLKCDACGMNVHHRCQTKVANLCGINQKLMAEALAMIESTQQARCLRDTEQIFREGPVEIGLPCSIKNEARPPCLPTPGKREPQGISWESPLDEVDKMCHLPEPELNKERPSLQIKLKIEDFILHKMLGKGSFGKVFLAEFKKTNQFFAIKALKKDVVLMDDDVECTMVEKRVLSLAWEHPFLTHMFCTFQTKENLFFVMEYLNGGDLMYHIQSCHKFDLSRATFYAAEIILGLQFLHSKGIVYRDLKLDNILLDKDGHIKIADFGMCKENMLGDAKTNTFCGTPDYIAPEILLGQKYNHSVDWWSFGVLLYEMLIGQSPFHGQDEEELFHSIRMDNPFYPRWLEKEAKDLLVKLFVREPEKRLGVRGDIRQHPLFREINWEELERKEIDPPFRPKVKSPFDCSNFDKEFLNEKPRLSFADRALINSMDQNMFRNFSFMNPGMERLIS

| inhibition [1] | inhibition [2] | inhibition [3] | inhibition [4] | inhibition [5] | inhibition [6] | inhibition [7] | inhibition [8] | inhibition [9] | Structure (SMILES) |
| --- | --- | --- | --- | --- | --- | --- | --- | --- | --- |
| 70% | -4% | -4% | -10% | -8% | 11% | 5% | 29% | 7% | C#Cc1cccc(Nc2ncnc3cc(OCCOC)c(OCCOC)cc23)c1 |
| 44% | 6% | 7% | 5% | -1% | 17% | 22% | 54% | 10% | C[C@@H](Nc1ncnc2oc(-c3ccc(NCCN4CCCCC4)cc3)cc12)c1ccccc1 |
| 37% | 6% | 10% | 8% | 3% | 17% | 27% | 51% | 10% | C[C@@H](Nc1ncnc2oc(-c3ccc(NCCN(C)C)cc3)cc12)c1ccccc1 |
